US12378528B2, “Systems and methods for growth of intestinal cells in microfluidic devices” (EMULATE, INC., priority 2016, dated 2025)

Key:
[1] = system: mitochondrial respiration in iFGEs; assay: Seahorse mitochondrial stress test in iFGEs; type: cell-based, human
Protocol: (§1) The Seahorse XF^e24 Extracellular Flux Analyzer (Seahorse Biosciences) was used to perform mitochondrial stress tests and obtain real-time measurements of oxygen consumption rate (OCR) in cells. iFGEs and iHTNS treated with or without EDCs were seeded in a 24-well Seahorse culture plate at a density of 10,000-15,000 cells/well. For analysis of OCR, cells were reconstituted in Seahorse base medium and were allowed to settle for 1 hour at 37° C. in non-CO2 incubator before measurements. Chemical reagents (Sigma) were used at final concentrations as follows: 1 μM Oligomycin—an ATP synthase inhibitor, 1 μM (FCCP) carbonyl cyanide 4-(trifluoromethoxy)phenylhydrazone—an uncoupling agent, and a mixture of 0.5 μM antimycin A—a cytochrome C reductase inhibitor and 0.5 μM rotenone—a complex I inhibitor. Results were normalized to protein concentration determined by BCA assay (Thermo Scientific).

[2] = system: mitochondrial respiration in iHTNs; assay: Seahorse mitochondrial stress test in iHTNs; type: cell-based, human
Protocol: as §1

[3] = system: human intestinal epithelial cells derived from IPSCs; assay: Transepithelial electrical resistance (TEER) on microfluidic chip; type: cell-based; details: IFNgamma 10 ng/ml, basal administration, over time, n=4
Protocol: (§2) Intestinal epithelium, derived from iPSCs, is seeded onto the microfluidic device followed by characterization of intestinal epithelial subtypes. Functional assays, including an examination of permeability via transepithelial resistance and dextran FITC efflux will be assessed either under basal conditions or in response to inflammatory cytokines such as interferon-gamma (IFNg) and/or tumor necrosis factor-alpha (TNFalpha). Also drug candidates that may modulate the various intestinal epithelial subtypes will be examined to assess if such subtypes can indeed be modulated. After establishing such assays, IPSCs from genetically defined inflammatory bowel disease (IBD) patients will be generated, differentiated into intestinal organoids, disassociated and subsequently seeded onto the microfluidic devices and the functional consequences of the genetic variations associated with IBD will be assessed.
(§3) Human intestinal epithelial cells derived from IPSCs were treated with 10 ng/ml of IFNgamma. The basal administration of IFNg leads to a decrease in transepithelial resistance and an increase in the efflux of dextran FITC in human intestinal epithelial cells derived from IPSCs. Basically this means that the intestinal epithelium is more permeable in response to this cytokine.

[4] = system: human intestinal epithelial cells derived from IPSCs; assay: FITC dextran permeability on microfluidic chip; type: cell-based; details: for permeability co-efficient of FITC dextran added to the apical channel / efflux of dextran FITC / accumulation in the basal layer: IFNgamma 10 ng/ml; for efflux of dextran FITC / accumulation in the basal layer: dextran added to apical channel
Protocol: as §2, §3

[5] = system: STAT1 and IFNgamma responsive genes; assay: STAT1 phosphorylation and gene expression in iPSC-derived intestinal epithelium on microfluidic device; type: cell-based, human; details: administration to the lower channel
Protocol: In one embodiment, iPSCs were directed to form HIOs and were subsequently dissociated to a single cell suspension. These cells were then seeded into a small microfluidic device (SMD) which is composed of two chambers separated by a porous flexible membrane. See, FIG. 40.

Caco2 cells = assay: Gene expression in Caco2 cells treated with IFNgamma; type: cell-based, human

| Molecule | effect on mitochondrial spare respiratory capacity [1] | effect on mitochondrial spare respiratory capacity [2] | transepithelial electrical resistance (TEER) [3] | permeability co-efficient of FITC dextran added to the apical channel [4] | efflux of dextran FITC / accumulation in the basal layer [4] | also measured |
| --- | --- | --- | --- | --- | --- | --- |
| Cc1cc(C(C)(C)C)c(O)c(C(C)(C)C)c1 [BHT, Butylated hydroxytoluene] | significant decrease | significant impairment |  |  |  |  |
| O=C(O)C(F)(F)C(F)(F)C(F)(F)C(F)(F)C(F)(F)C(F)(F)C(F)(F)F [PFOA, Perfluorooctanoic acid] | did not show any effect | did not show any effect |  |  |  |  |
| IFNgamma: inflammatory cytokine interferon-gamma |  |  | loss of transepithelial electrical resistance | increase | increase | transepithelial electrical resistance (TEER) ([3]; listed as IFNg): decrease; efflux of dextran FITC / accumulation in the basal layer ([4]; listed as INFgamma): accumulation in the basal layer; expression of IFNgamma responsive genes IDO1, GBP4 and/or GBP5 [5]: significant upregulation; expression of phospholipase A2 group 2A and Muc4 [5]: also upregulated; phosphorylation of STAT1 [5]: phosphorylation of STAT1; expression of genes associated with intestinal epithelial subtypes (Caco2 cells): no corresponding upregulation |
| TNFalpha |  |  | increased TEER over time comparable to controls | comparable | comparable | intestinal permeability ([4]; addition of TNFa): does not elicit any change |
| Tributyltin [TBT] |  | significant impairment |  |  |  |  |
